Data taken from publication PMC10846744, “Cathelicidin peptide analogues inhibit EV71 infection through blocking viral entry and uncoating” (PLOS Pathogens, 2024).
Where no end group is shown, it is not given here.

Experiments:
[1] = system: EV71 virus-SCARB2 interaction; experiment: Virus-SCARB2 co-immunoprecipitation competition; format: binding; details: SCARB2-Flag 293T lysates incubated with EV71 virus with or without compound, anti-Flag IP, anti-VP1 immunoblotting
Description: Fig 5 LL-18 interferes with virus-SCARB2 interaction. (A) Molecular docking model of LL-18 with EV71 virion. […] The amino acid residues of capsid protein interacting with both LL-18 and SCARB2 are indicated (right panel). (B) 293T cells expressing SCARB2-Flag were lysed and cell lysates were incubated with EV71 virus in the absence or presence of the indicated amount of LL-18. Cell lysates were then immunoprecipitated with anti-Flag antibody and the precipitated virus was determined with anti-VP1 antibody. (C) 293T cells expressing Annexin 2-Flag were lysed and cell lysates were incubated with EV71 virus in the absence or presence of LL-18. Cell lysates were then immunoprecipitated with anti-Flag antibody and the precipitated virus was determined with anti-VP1 antibody.
Coimmunoprecipitation was performed as previously described. Briefly, VP1, VP2, and VP3 were PCR amplified and cloned into pcDNA3.1 with an HA tag. LL-18 or LL-37 encoding oligonucleotides were inserted into an eGFP-expressing construct (pHW200-eGFP). […] After washing with wash buffer (0.05% Triton X-100) six times, samples were analyzed by Western blotting.
Supplementary file ppat.1011967.s004.tif: S4 Fig Compound 12s interferes with virus-SCARB2 interaction. […] Cell lysates were then immunoprecipitated with anti-Flag antibody and the precipitated virus was determined with anti-VP1 antibody. […]

EV71 virions = experiment: Viral particle stability thermal release assay (PaSTRY); set-up: species or system enterovirus 71 (EV71); details: EV71 MOI = 10 pre-incubated with LL-18 or NaCl, SYBR green II, heated 25°C to 80°C; PBS control around 45°C
Description: Fig 6 LL-18 stabilizes the viral particles by inhibiting uncoating. (A) EV71 virus (MOI = 10) was pre-incubated with PBS, indicated amount of LL-18 or NaCl for 1 hr and then mixed with SYBR green dyes II before they were heated to indicated temperatures. The fluorescent signals were measured and plotted against temperature. PBS was used as a negative control. (B) EV71 virus (MOI = 10) was pre-incubated with PBS, LL-18, or 12s for 2 hrs. Half of the samples were then treated with 1.5 μg SCARB2 protein and incubated at 37°C for 2 hrs at pH 5.5. Samples were then subjected to ultracentrifugation as detailed in materials and methods. The numbers above represent the fractions collected from top to bottom.
EV71 viruses were preincubated with either PBS, NaCl or the indicated amount of LL-18 at room temperature for 2 hrs, before Sybr green II dye (3× working concentration, Solarbio, China) and RNase inhibitor (1 U/μL, Thermo Scientific) were added. The mixture was heated from 25°C to 80°C with an increment of 0.5°C for 30 seconds, and the fluorescence from SYBR green was monitored with a QuantGene 9600 real-time PCR system (Bioer, China).

EV71 P30 virus = experiment: Resistance induction assay (30 passages); format: cell-based, enterovirus 71 (EV71); details: 20 passages at 0.9 μM then 10 at 1.5 μM LL-18; 1.5 μM LL-18 pre-incubation 1 h, RD cell viability 24 h.p.i
Description: (A) Diagram of resistance induction assay. (B) RD cells infected with parental EV71 or P30 with or without 1.5 μM LL-18 pre-incubation were tested for cell viability 24 h.p.i. ns, not significant; ***, P<0.001.
Resistance induction assay was conducted as previously reported. Briefly, virus was first successively passaged in RD cells for 20 generations in the presence of a lower concentration of LL-18 (0.9 μM). The progeny virus was then passaged for another 10 generations with 1.5 μM LL-18, and the progeny virus was designated as P30. The parental EV71 and P30 with the same titer were pre-incubated with 1.5 μM LL-18 for 1 h and then tested for cell viability 24 h.p.i.

IFN-β = IFN-β production in RD cells (q-RT-PCR); format: cell-based, human
Description: For real-time PCR, cells were treated as described, and cellular total RNA was isolated using the Cell Total RNA Isolation Kit (ForeGene, China) according to the manufacturer’s protocol. The cDNA was synthesized using the ProtoScript II First Strand cDNA Synthesis Kit (New England Biolabs). cDNA was then determined with 2×RealStar Green Fast Mixture (GenStar, China) with the following primers: […]
Supplementary file ppat.1011967.s007.tif: S7 Fig Induction of IFN-β production by peptides. (A) RD cells treated with 1.5 μM LL-18 or LL-37 for indicated time and IFN-β production was detected by q-RT-PCR. (B) RD cells treated with EV71 viruses pre-treated with PBS or LL-18 for indicated time and IFN-β production was detected by q-RT-PCR. ns, not significant; **, P<0.01; ***, P<0.001. (TIF) Click here for additional data file.

With FRKSKEKIGKLFKRIVQRILDFLRNLV [LL-18] the “inhibition of EV71 virus binding to SCARB2” value [1] was “inhibit virus binding to SCARB2 in a dose-dependent manner”, the “temperature of peak SYBR green fluorescence intensity (RNA release)” value (EV71 virions) was 53 °C and the “susceptibility of P30 virus to LL-18” value (EV71 P30 virus) was “still as susceptible to LL-18 as the parental virus”. The “interferon (IFN-β) production after pre-incubation of peptide with viruses” value (IFN-β; RD cells treated with EV71 pre-treated with LL-18, q-RT-PCR (S7B Fig)) was “reduced its ability to induce interferon production” and the “induction of interferon (IFN-β) production by peptide alone” value (IFN-β; RD cells, 1.5 μM peptide, q-RT-PCR (S7A Fig)) was “could induce interferon production”.
